Results taken from patent publication US8933233B2, “1,3,4-oxadiazole and 1,3,4-thiadiazole β-lactamase inhibitors” (priority 2012, dated 2015).
Counter-ions that a name gives are not always drawn.

Key:
[1] = system: bacterial strains that express the class D cephalosporinase OXA-15; experiment: Synergy MIC / standard BLI potentiation MIC assay, strains expressing OXA-15; format: cell-based, E. coli; settings: in presence of a β-lactam; comparator Avibactam (CCC)
How it was run: (§1)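 Broth microdilution in CAMHB per CLSI M07-A9, ~10^5 CFU/mL inoculum, 18–20 h at 37 °C with aeration; engineered E. coli kept with 25 μg/mL tetracycline. β-lactam 2-fold from 128 to 0.13 μg/mL with BLI fixed at 4 μg/mL, or BLI serially diluted with β-lactam fixed; MIC is lowest concentration without visible turbidity.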

[2] = system: bacterial strains that express KPC β-lactamases; experiment: Synergy MIC / standard BLI potentiation MIC assay, strains expressing KPC β-lactamases; format: cell-based, isogenic E. coli and clinical isolates; settings: more active for at least one KPC strain and/or better spectrum; comparator Avibactam
How it was run: as §1

| SMILES | activity against bacterial strains that express OXA-15, compared with Avibactam [1] | activity and/or spectrum of activity against bacterial strains that express KPC β-lactamases, compared with Avibactam [2] |
| --- | --- | --- |
| O=C1N2C[C@@H](CC[C@H]2c2nnc([C@H]3CNCCN3)o2)N1OS(=O)(=O)O [Compound 779, (2S,5R)-7-oxo-2-(5-((R)-piperazin-2-yl)-1,3,4-oxadiazol-2-yl)-1,6-diazabicyclo[3.2.1]octan-6-yl hydrogen sulfate] | more active than Avibactam | more active than Avibactam |
| N=C(N)NCC1(c2nnc([C@@H]3CC[C@@H]4CN3C(=O)N4OS(=O)(=O)O)o2)CC1 [Compound 723, (2S,5R)-2-(5-(1-(guanidinomethyl)cyclopropyl)-1,3,4-oxadiazol-2-yl)-7-oxo-1,6-diazabicyclo[3.2.1]octan-6-yl hydrogen sulfate] | more active than Avibactam | more active than Avibactam |
| N[C@H]1C[C@@H](c2nnc([C@@H]3CC[C@@H]4CN3C(=O)N4OS(=O)(=O)O)s2)C1 [Compound 795, (2S,5R)-2-(5-((1s,3R)-3-aminocyclobutyl)-1,3,4-thiadiazol-2-yl)-7-oxo-1,6-diazabicyclo[3.2.1]octan-6-yl hydrogen sulfate] | more active than Avibactam | more active than Avibactam |
| O=C1N2C[C@@H](CC[C@H]2c2nnc([C@H]3CCNC3)o2)N1OS(=O)(=O)O [Compound 758, (2S,5R)-7-oxo-2-(5-((S)-pyrrolidin-3-yl)-1,3,4-oxadiazol-2-yl)-1,6-diazabicyclo[3.2.1]octan-6-yl hydrogen sulfate] | more active than Avibactam | more active than Avibactam |
| O=C1N2C[C@@H](CC[C@H]2c2nnc(CNC3CNC3)o2)N1OS(=O)(=O)O [Compound 726, (2S,5R)-2-(5-((azetidin-3-ylamino)methyl)-1,3,4-oxadiazol-2-yl)-7-oxo-1,6-diazabicyclo[3.2.1]octan-6-yl hydrogen sulfate] | more active than Avibactam | more active than Avibactam |
| N[C@@H]1CC[C@H](c2nnc([C@@H]3CC[C@@H]4CN3C(=O)N4OS(=O)(=O)O)o2)C1 [Compound 729, (2S,5R)-2-(5-((1S,3R)-3-aminocyclopentyl)-1,3,4-oxadiazol-2-yl)-7-oxo-1,6-diazabicyclo[3.2.1]octan-6-yl hydrogen sulfate] | more active than Avibactam | more active than Avibactam |
| N=C(N)NC[C@H](O)c1nnc([C@@H]2CC[C@@H]3CN2C(=O)N3OS(=O)(=O)O)o1 [Compound 732, (2S,5R)-2-(5-((S)-2-guanidino-1-hydroxyethyl)-1,3,4-oxadiazol-2-yl)-7-oxo-1,6-diazabicyclo[3.2.1]octan-6-yl hydrogen sulfate] | more active than Avibactam | more active than Avibactam |
| N=C(N)NCC(O)Cc1nnc([C@@H]2CC[C@@H]3CN2C(=O)N3OS(=O)(=O)O)o1 (stereo partly drawn) [Compound 730, (2S,5R)-2-(5-(3-guanidino-2-hydroxypropyl)-1,3,4-oxadiazol-2-yl)-7-oxo-1,6-diazabicyclo[3.2.1]octan-6-yl hydrogen sulfate] | more active than Avibactam | more active than Avibactam |
| N[C@@H]1CN[C@H](c2nnc([C@@H]3CC[C@@H]4CN3C(=O)N4OS(=O)(=O)O)o2)C1 [Compound 760, (2S,5R)-2-(5-((2S,4S)-4-aminopyrrolidin-2-yl)-1,3,4-oxadiazol-2-yl)-7-oxo-1,6-diazabicyclo[3.2.1]octan-6-yl hydrogen sulfate] | more active than Avibactam | more active than Avibactam |
| O=C1N2C[C@@H](CC[C@H]2c2nnc(CCC3CNC3)o2)N1OS(=O)(=O)O [Compound 742, (2S,5R)-2-(5-(2-(azetidin-3-yl)ethyl)-1,3,4-oxadiazol-2-yl)-7-oxo-1,6-diazabicyclo[3.2.1]octan-6-yl hydrogen sulfate] | more active than Avibactam | more active than Avibactam |
| N=C(N)NCCc1nnc([C@@H]2CC[C@@H]3CN2C(=O)N3OS(=O)(=O)O)s1 [Compound 794, (2S,5R)-2-(5-(2-guanidinoethyl)-1,3,4-thiadiazol-2-yl)-7-oxo-1,6-diazabicyclo[3.2.1]octan-6-yl hydrogen sulfate] | more active than Avibactam | more active than Avibactam |
| N[C@H]1CN[C@H](c2nnc([C@@H]3CC[C@@H]4CN3C(=O)N4OS(=O)(=O)O)o2)C1 [Compound 762, (2S,5R)-2-(5-((2S,4R)-4-aminopyrrolidin-2-yl)-1,3,4-oxadiazol-2-yl)-7-oxo-1,6-diazabicyclo[3.2.1]octan-6-yl hydrogen sulfate] | more active than Avibactam | more active than Avibactam |
